According to ChEMBL document CHEMBL5050828, “Inhibitors of DUX4 induction for regulation of muscle function” (2021):
pEC50, pIC50: −log10 of the molar value. Calls of active or inactive are those of the source.

Experiments:
Myoblast [1] = experiment: Effect on DUX4-target gene expression in facioscapulohumeral muscular dystrophy (FSHD) primary pateint derived myoblasts at 0.03 to 3 microM assessed as decrease in TRIM49 expression; format: functional, cell-based; settings: Homo sapiens, dose 0.03-3 µM
Myoblast [2] = experiment: Effect on myosin heavy chain expression in facioscapulohumeral muscular dystrophy (FSHD) affected human embryonic stem cell (hESC)-derived skeletal myoblasts at 0.01 to 3 uM and measured by immunocytochemistry analysis relative to control; format: functional, cell-based; settings: dose 0.01-3 µM
[3] = Downregulation of DUX4 expression in facioscapulohumeral muscular dystrophy (FSHD) affected human embryonic stem cell (hESC)-derived skeletal myoblasts and measured by immunocytochemistry analysis; format: functional, cell-based; settings: Myoblast
[4] = biological target: Proto-oncogene tyrosine-protein kinase Src (Homo sapiens) (UniProt P12931); experiment: Inhibition of SRC in facioscapulohumeral muscular dystrophy (FSHD) primary pateint derived myoblasts at 0.01 to 1 uM and measured by immunofluorescence method; format: cell-based; settings: Myoblast, dose 0.01-1 µM
[5] = Half-life in male CD-1 mouse at 10 mg/kg, IM measured by LC-MS/MS analysis; format: ADME, organism-based; settings: in vivo
Myoblast [6] = experiment: Effect on DUX4-target gene expression in facioscapulohumeral muscular dystrophy (FSHD) primary pateint derived myoblasts at 0.03 to 3 microM assessed as decrease in PRAMEF6 expression; format: functional, cell-based; settings: Homo sapiens, dose 0.03-3 µM
Myoblast [7] = experiment: Effect on DNA methylation levels at 4qA regions of chromosome 4 in myotubes of facioscapulohumeral muscular dystrophy (FSHD) affected human embryonic stem cell (hESC)-derived skeletal myoblasts at 0.01 to 1 uM; format: functional, cell-based; settings: dose 0.01-1 µM
Myoblast [8] = experiment: Effect on PRKDC expression in facioscapulohumeral muscular dystrophy (FSHD) primary pateint derived myoblasts at 0.01 to 1 uM and measured by RT-PCR analysis; format: functional, cell-based; settings: Homo sapiens, dose 0.01-1 µM
Myoblast [9] = experiment: Effect on myotube gene expression in facioscapulohumeral muscular dystrophy (FSHD) primary pateint derived myoblasts at 0.03 to 3 microM assessed as decrease in DES expression; format: functional, cell-based; settings: Homo sapiens, dose 0.03-3 µM
Myoblast [10] = experiment: Effect on DUX4-target gene expression in facioscapulohumeral muscular dystrophy (FSHD) primary pateint derived myoblasts at 0.03 to 3 microM assessed as decrease in LEUTX expression; format: functional, cell-based; settings: Homo sapiens, dose 0.03-3 µM
Myoblast [11] = experiment: Effect on DUX4-target gene expression in facioscapulohumeral muscular dystrophy (FSHD) primary pateint derived myoblasts at 0.03 to 3 microM assessed as decrease in TRIM43 expression; format: functional, cell-based; settings: Homo sapiens, dose 0.03-3 µM
[12] = Brain concentration in male CD-1 mouse at 10 mg/kg, IM administered as single dose and measured by LC-MS/MS analysis; format: ADME, organism-based; settings: in vivo, BLD = below limit of detection
Myoblast [13] = experiment: Effect on DUX4-target gene expression in facioscapulohumeral muscular dystrophy (FSHD) primary pateint derived myoblasts at 0.03 to 3 microM assessed as decrease in ZNF296 expression; format: functional, cell-based; settings: Homo sapiens, dose 0.03-3 µM
Myoblast [14] = experiment: Effect on DUX4-target gene expression in facioscapulohumeral muscular dystrophy (FSHD) primary pateint derived myoblasts at 0.03 to 3 microM assessed as decrease in ZSCAN4 expression; format: functional, cell-based; settings: Homo sapiens, dose 0.03-3 µM
Myoblast [15] = experiment: Effect on DNA methylation levels at D4Z4 regions of chromosome 4 in myotubes of facioscapulohumeral muscular dystrophy (FSHD) affected human embryonic stem cell (hESC)-derived skeletal myoblasts at 0.01 to 1 uM; format: functional, cell-based; settings: dose 0.01-1 µM
Myoblast [16] = experiment: Rescue of apoptosis in facioscapulohumeral muscular dystrophy (FSHD) primary pateint derived myoblasts at 0.01 to 3 uM assessed as decrease in caspase 3/7 activation and measured by live cell imaging method; format: functional, cell-based; settings: Homo sapiens, dose 0.01-3 µM
Myoblast [17] = experiment: Effect on DUX4-target gene expression in facioscapulohumeral muscular dystrophy (FSHD) primary pateint derived myoblasts at 0.03 to 3 microM assessed as decrease in KHDC1L expression; format: functional, cell-based; settings: Homo sapiens, dose 0.03-3 µM
Myoblast [18] = experiment: Effect on SRC expression in facioscapulohumeral muscular dystrophy (FSHD) primary pateint derived myoblasts at 0.01 to 1 uM and measured by RT-PCR analysis; format: functional, cell-based; settings: Homo sapiens, dose 0.01-1 µM
Myoblast [19] = experiment: Effect on myotube gene expression in facioscapulohumeral muscular dystrophy (FSHD) primary pateint derived myoblasts at 0.03 to 3 microM assessed as decrease in MYH3 expression; format: functional, cell-based; settings: Homo sapiens, dose 0.03-3 µM
Myoblast [20] = experiment: Effect on nuclei count in facioscapulohumeral muscular dystrophy (FSHD) affected human embryonic stem cell (hESC)-derived skeletal myoblasts at 100 nM and measured by immunocytochemistry analysis relative to control; format: functional, cell-based
[21] = Half-life in male CD-1 mouse at 50 mg/kg, IM measured by LC-MS/MS analysis; format: ADME, organism-based; settings: in vivo
Myoblast [22] = experiment: Effect on myotube gene expression in facioscapulohumeral muscular dystrophy (FSHD) primary pateint derived myoblasts at 0.03 to 3 microM assessed as decrease in DMD expression; format: functional, cell-based; settings: Homo sapiens, dose 0.03-3 µM
Myoblast [23] = experiment: Effect on DUX4-target gene expression in facioscapulohumeral muscular dystrophy (FSHD) primary pateint derived myoblasts at 0.03 to 3 microM assessed as decrease in SPRYD5 expression; format: functional, cell-based; settings: Homo sapiens, dose 0.03-3 µM
[24] = Downregulation of DUX4 expression in facioscapulohumeral muscular dystrophy (FSHD) primary pateint derived myoblasts and measured by immunocytochemistry analysis; format: functional, cell-based; settings: Homo sapiens, Myoblast
[25] = biological target: DNA-dependent protein kinase catalytic subunit (Homo sapiens) (UniProt P78527); experiment: Inhibition of PRKDC in facioscapulohumeral muscular dystrophy (FSHD) primary pateint derived myoblasts at 0.01 to 1 uM and measured by immunofluorescence method; format: cell-based; settings: Myoblast, dose 0.01-1 µM
Myoblast [26] = experiment: Rescue of cell death in facioscapulohumeral muscular dystrophy (FSHD) primary pateint derived myoblasts at 0.01 to 3 uM and measured by live cell imaging method; format: functional, cell-based; settings: Homo sapiens, dose 0.01-3 µM
Myoblast [27] = experiment: Effect on DUX4-target gene expression in facioscapulohumeral muscular dystrophy (FSHD) primary pateint derived myoblasts at 0.03 to 3 microM assessed as decrease in CCNA1 expression; format: functional, cell-based; settings: Homo sapiens, dose 0.03-3 µM
Myoblast [28] = experiment: Effect on myotube gene expression in facioscapulohumeral muscular dystrophy (FSHD) primary pateint derived myoblasts at 0.03 to 3 microM assessed as decrease in CKM expression; format: functional, cell-based; settings: Homo sapiens, dose 0.03-3 µM
Myoblast [29] = experiment: Downregulation of DUX4 expression in facioscapulohumeral muscular dystrophy (FSHD) affected human embryonic stem cell (hESC)-derived skeletal myoblasts at 0.01 to 3 uM and measured by immunocytochemistry analysis relative to control; format: functional, cell-based; settings: dose 0.01-3 µM
Myoblast [30] = experiment: Effect on myotube gene expression in facioscapulohumeral muscular dystrophy (FSHD) primary pateint derived myoblasts at 0.03 to 3 microM assessed as decrease in MYOG expression; format: functional, cell-based; settings: Homo sapiens, dose 0.03-3 µM
Myoblast [31] = experiment: Downregulation of DUX4 expression in facioscapulohumeral muscular dystrophy (FSHD) affected human embryonic stem cell (hESC)-derived skeletal myoblasts at 100 nM and measured by immunocytochemistry analysis relative to control; format: functional, cell-based
Myoblast [32] = experiment: Effect on myosin heavy chain expression in facioscapulohumeral muscular dystrophy (FSHD) affected human embryonic stem cell (hESC)-derived skeletal myoblasts at 100 nM and measured by immunocytochemistry analysis relative to control; format: functional, cell-based
Myoblast [33] = experiment: Effect on DUX4-target gene expression in facioscapulohumeral muscular dystrophy (FSHD) primary pateint derived myoblasts at 0.03 to 3 microM assessed as decrease in MBD3L2 expression; format: functional, cell-based; settings: Homo sapiens, dose 0.03-3 µM
Myoblast [34] = experiment: Effect on myotube gene expression in facioscapulohumeral muscular dystrophy (FSHD) primary pateint derived myoblasts at 0.03 to 3 microM assessed as decrease in MYH8 expression; format: functional, cell-based; settings: Homo sapiens, dose 0.03-3 µM
Myoblast [35] = experiment: Effect on DUX4-target gene expression in facioscapulohumeral muscular dystrophy (FSHD) primary pateint derived myoblasts at 0.03 to 3 microM assessed as decrease in PRAMEF2 expression; format: functional, cell-based; settings: Homo sapiens, dose 0.03-3 µM

Chain of DNA-dependent protein kinase catalytic subunit (Homo sapiens) (P78527 whole entry): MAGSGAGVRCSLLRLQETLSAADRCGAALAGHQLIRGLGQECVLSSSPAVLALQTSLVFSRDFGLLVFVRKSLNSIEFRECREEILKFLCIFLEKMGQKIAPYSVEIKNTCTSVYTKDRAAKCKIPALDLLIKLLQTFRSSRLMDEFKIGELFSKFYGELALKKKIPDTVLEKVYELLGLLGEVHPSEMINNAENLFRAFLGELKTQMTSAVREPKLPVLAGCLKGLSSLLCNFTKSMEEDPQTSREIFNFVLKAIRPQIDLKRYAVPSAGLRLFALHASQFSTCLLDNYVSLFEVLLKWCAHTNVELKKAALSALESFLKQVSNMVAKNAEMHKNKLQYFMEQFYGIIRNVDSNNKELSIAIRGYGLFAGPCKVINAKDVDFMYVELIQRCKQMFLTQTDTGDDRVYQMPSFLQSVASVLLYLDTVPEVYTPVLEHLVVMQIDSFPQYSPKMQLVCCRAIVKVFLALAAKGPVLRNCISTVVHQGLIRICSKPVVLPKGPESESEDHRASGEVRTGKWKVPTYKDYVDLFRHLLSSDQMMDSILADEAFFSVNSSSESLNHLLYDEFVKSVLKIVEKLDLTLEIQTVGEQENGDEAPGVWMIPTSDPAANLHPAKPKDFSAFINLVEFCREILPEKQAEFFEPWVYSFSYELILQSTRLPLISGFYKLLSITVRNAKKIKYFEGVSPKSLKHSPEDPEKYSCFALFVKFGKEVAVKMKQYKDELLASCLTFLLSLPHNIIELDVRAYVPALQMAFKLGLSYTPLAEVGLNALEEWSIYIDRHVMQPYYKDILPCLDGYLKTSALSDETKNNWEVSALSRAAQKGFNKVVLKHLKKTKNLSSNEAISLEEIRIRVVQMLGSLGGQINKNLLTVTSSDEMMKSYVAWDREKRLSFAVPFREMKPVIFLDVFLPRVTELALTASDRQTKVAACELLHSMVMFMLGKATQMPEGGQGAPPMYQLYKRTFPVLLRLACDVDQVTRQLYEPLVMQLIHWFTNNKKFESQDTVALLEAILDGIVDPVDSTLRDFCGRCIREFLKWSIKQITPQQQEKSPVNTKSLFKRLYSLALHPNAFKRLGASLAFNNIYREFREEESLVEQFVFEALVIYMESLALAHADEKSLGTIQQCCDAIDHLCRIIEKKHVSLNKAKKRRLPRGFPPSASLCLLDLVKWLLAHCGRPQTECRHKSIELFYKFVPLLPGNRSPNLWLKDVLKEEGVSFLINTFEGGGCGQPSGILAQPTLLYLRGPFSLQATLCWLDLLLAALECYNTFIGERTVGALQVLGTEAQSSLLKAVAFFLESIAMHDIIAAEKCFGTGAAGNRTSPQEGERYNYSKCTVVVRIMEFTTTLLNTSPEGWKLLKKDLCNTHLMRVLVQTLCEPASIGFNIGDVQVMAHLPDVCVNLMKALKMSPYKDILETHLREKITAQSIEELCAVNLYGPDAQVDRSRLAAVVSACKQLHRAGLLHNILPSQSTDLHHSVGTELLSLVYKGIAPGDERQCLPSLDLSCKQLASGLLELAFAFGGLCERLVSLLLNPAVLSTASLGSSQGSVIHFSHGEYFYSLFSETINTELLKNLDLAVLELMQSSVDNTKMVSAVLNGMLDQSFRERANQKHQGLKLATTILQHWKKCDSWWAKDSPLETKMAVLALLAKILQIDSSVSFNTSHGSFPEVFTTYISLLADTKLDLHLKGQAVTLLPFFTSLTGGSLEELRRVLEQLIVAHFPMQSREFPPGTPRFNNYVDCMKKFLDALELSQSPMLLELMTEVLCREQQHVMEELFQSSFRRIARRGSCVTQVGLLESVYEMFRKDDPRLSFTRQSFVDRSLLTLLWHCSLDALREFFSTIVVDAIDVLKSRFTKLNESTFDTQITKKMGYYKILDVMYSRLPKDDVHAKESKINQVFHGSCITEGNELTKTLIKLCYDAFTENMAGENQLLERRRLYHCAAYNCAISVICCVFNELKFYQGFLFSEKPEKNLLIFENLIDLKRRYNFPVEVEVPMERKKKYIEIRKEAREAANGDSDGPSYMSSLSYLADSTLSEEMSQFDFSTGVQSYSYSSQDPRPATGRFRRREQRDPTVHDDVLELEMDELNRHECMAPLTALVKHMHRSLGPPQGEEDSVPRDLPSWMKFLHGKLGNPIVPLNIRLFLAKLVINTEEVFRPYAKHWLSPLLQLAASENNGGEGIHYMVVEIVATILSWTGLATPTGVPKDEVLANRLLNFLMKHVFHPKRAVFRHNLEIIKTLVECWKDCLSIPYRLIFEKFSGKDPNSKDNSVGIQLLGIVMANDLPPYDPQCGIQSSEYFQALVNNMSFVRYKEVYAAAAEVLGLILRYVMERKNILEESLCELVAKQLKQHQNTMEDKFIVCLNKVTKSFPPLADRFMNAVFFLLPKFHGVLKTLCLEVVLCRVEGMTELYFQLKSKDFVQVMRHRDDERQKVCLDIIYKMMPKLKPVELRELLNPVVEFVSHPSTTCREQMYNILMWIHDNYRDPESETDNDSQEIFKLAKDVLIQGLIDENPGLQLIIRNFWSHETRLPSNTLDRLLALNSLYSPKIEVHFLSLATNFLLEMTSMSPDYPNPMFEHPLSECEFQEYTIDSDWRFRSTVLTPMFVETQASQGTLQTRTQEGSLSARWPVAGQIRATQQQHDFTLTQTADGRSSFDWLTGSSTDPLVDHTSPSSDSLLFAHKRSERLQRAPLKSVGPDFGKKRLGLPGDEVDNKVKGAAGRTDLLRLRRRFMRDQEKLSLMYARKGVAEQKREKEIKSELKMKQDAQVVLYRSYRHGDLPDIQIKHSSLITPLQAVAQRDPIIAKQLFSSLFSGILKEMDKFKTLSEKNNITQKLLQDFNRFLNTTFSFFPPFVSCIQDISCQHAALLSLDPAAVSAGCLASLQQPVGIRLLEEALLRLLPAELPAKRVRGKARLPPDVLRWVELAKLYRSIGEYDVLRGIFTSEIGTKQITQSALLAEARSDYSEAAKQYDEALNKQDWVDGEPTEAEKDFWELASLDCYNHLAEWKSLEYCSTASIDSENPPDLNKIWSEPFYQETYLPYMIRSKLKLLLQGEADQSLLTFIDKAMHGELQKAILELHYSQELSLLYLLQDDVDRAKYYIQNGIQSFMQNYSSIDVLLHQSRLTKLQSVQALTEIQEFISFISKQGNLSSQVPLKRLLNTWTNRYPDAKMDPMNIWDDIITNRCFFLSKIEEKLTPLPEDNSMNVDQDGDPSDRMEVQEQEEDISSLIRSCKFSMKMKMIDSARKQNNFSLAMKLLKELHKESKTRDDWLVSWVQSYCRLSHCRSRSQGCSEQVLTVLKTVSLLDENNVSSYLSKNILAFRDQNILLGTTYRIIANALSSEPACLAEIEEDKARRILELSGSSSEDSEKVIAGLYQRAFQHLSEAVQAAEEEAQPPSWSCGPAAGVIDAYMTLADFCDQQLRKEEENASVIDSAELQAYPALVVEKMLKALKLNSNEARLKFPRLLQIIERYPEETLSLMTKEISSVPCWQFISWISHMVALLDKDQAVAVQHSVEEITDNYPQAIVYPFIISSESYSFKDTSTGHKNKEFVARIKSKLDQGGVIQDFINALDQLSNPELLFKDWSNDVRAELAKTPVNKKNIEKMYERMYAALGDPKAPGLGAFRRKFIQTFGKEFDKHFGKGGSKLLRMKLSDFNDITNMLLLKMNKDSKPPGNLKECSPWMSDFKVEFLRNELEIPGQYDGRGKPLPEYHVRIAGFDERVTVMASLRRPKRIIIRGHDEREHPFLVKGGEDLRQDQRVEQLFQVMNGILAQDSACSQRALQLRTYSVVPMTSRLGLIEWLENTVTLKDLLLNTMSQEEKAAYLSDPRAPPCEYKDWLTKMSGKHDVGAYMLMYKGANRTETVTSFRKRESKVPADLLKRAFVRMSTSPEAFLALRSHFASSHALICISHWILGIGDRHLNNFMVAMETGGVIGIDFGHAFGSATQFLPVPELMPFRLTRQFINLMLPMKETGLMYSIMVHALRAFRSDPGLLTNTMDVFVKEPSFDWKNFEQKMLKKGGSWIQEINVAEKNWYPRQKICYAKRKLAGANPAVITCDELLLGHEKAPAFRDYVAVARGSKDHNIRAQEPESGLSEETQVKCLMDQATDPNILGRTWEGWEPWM
Chain of Proto-oncogene tyrosine-protein kinase Src (Homo sapiens) (P12931 2-536 limits assumed): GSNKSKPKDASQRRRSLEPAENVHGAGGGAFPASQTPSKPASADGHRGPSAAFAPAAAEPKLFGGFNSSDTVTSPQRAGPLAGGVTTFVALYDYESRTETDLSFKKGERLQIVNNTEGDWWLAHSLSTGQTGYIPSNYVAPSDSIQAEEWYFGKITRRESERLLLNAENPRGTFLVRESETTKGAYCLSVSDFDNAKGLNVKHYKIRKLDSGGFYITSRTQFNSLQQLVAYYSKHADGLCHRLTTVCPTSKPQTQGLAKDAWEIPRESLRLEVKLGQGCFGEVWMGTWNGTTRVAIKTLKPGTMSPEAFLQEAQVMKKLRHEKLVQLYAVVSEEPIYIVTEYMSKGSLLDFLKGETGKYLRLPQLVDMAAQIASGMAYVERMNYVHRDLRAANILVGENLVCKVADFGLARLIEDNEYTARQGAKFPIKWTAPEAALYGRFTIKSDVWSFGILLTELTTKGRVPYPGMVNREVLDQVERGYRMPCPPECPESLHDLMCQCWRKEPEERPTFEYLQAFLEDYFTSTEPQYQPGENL

CNC(=O)c1cc(Oc2ccc(NC(=O)Nc3cc(C(C)(C)C)nn3-c3ccc4ncccc4c3)c(F)c2)ccn1 [REBASTINIB]
Bld: Drug uptake [12]
8.1 h: half-life [21]
active: Activity (Myoblast [1]) | inhibition [4] | Activity (Myoblast [6]) | Activity (Myoblast [10]) | Activity (Myoblast [11]) | Activity (Myoblast [13]) | Activity (Myoblast [14]) | Activity (Myoblast [16]) | Activity (Myoblast [17]) | Activity (Myoblast [23]) | inhibition [25] | Activity (Myoblast [26]) | Activity (Myoblast [27]) | Activity (Myoblast [29]) | Activity (Myoblast [31]) | Activity (Myoblast [33]) | Activity (Myoblast [35])
7.00: pIC50 [24]
4.42: pEC50 [3]
5.59 h: half-life [5]
inactive: Activity (Myoblast [2]) | Activity (Myoblast [7]) | Activity (Myoblast [8]) | Activity (Myoblast [9]) | Activity (Myoblast [15]) | Activity (Myoblast [18]) | Activity (Myoblast [19]) | Activity (Myoblast [20]) | Activity (Myoblast [22]) | Activity (Myoblast [28]) | Activity (Myoblast [30]) | Activity (Myoblast [32]) | Activity (Myoblast [34])
